Key:
[1] = test system: rats exposed to radiation; experiment: Radiation-induced dermatitis model in rats (15 Gy), topical polyamine effector; format: in vivo, Sprague Dawley rat; settings: for Avg dermatitis score: 15 Gy, vehicle 3.0
Protocol: To determine if treatment with a polyamine effector could effectively prevent radiation-induced dermatitis, adult rats were topically treated with several different classes of polyamine effectors before and after radiation treatment. Rats were exposed to medically relevant levels of radiation that could induce clinical radiation dermatitis. Sprague Dawley rats (Harlen Spraque Dawley) at 4–6 weeks-old were anesthetized with sodium pentobarbital at 40 mg/kg body weight (Sigma, St. Louis, Mo.) prior to radiation exposure. A defined, depilated area on the backs of rats was irradiated using a Mark I, Model 30, Cs 137 irradiator (J. L. Sheppard & Associates). Briefly, the back was stripped of hair to expose the skin using a 1:1 rosin/beeswax mixture. The rest of the body was protected from radiation exposure using a lead shield. A dose response study was initially preformed to reproduce relevant dermatitis that matched the Grade (I–IV) scale used to score the severity of radiation-induced dermatitis in the clinical setting. Radiation doses of 5–7 Gray (1 Gray (Gy)=[…]) produced Grade I dermatitis within 8–10 days. Radiation doses of 7–10 Gy produced Grade II dermatitis within 8–10 days. After 8–10 days, severe radiation dermatitis was produced at 20–25 Gy (Grade III dermatitis) or at 30–35 Gy (Grade IV). Radiation dermatitis of Grade II–III was considered most clinically relevant, so a radiation challenge dose of 15 Gy in the rats was used in subsequent treatment experiments. The stripped back region on the rats was treated topically with 10–50 mM polyamine effector once daily for 5 days before and 5 days after radiation challenge.
Different classes (natural polyamines and biosynthetic inhibitors) of polyamine effector agents were tested in this model. The polyamine effector compounds were purchased from Sigma Chemicals Co. (St. Louis, Mo.), except Vaniqa, a commercially available cream containing DFMO at 13.9% ([…]). The effectors were prepared in a delivery vehicle, consisting of from 60–100% ethanol in water, depending on the solubility of the compound. The compounds in ethanol/water solution from 100–150 μl in volume were topically administered to the stripped region. Rats treated with only the delivery vehicle served as controls. Eight to ten days post-radiation challenge, the rats were evaluated for dermatitis using a modified scoring scale described by Masuda K. et al. Int. J. Radiation Oncol. Biol. Phys: 12, 1645 (1986). Dermatitis score of 0=normal, 1=slight redness, scaly skin with no focal lesions, 2=moderate redness, breakdown of larger area, some small focal lesions, 3=skin very red, breakdown of most of the irradiated area, large ulcers and crusty lesions, 4=skin very red, breakdown of the entire irradiated area, severe exudation and large crusty lesions.
To determine if treatment with a non-natural polyamine analog could effectively prevent radiation-induced dermatitis, adult rats were topically treated with a polyamine analog before and after radiation treatment. Rats were exposed to medically relevant levels of radiation that could induce clinical radiation dermatitis. Sprague Dawley rats (Harlan Spraque Dawley) at 4–6 weeks old were anesthetized with sodium pentobarbital at 40 mg/kg body weight (Sigma, St. Louis, Mo.) prior to radiation exposure. A defined, depilated area on the backs of rats was irradiated using a Mark I, Model 30, Cs 137 irradiator (J. L. Sheppard & Associates). Briefly, back hair was removed to expose the skin by using Oster electric clippers followed by a safety razor. The rest of the body was protected from radiation exposure using a lead shield. A dose response study was initially preformed to reproduce relevant dermatitis that matched the Grade (I–IV) scale used to score the severity of radiation-induced dermatitis in the clinical setting. Radiation doses of 5–7 Gray (1 Gray (Gy)=[…]) produced Grade I dermatitis within 8–10 days. […]

[2] = test system: rat pups challenged with cytoxan; experiment: Cytoxan (CTX)-induced alopecia model in rat pups, topical polyamine effector; format: in vivo, Sprague Dawley rat; settings: for efficacy in the rat alopecia and/or dermatitis model: 5 mM, Examples 6, 7 and 8
Protocol: (§1) Induction of alopecia by cytoxan (CTX). Lactating Sprague Dawley mother rats with rat pups were purchased from Harlan Sprague Dawley (Indianapolis, Ind.). The mother rats were given food and water ad libitum. The rats pups were tested in the model of chemotherapy-induced alopecia described by Hussein A. M. et al., Science: 249, 1564 (1990). Cytoxan (CTX), a chemotherapeutic widely used in the treatment of cancer, was used to induce alopecia in the rats. A common side effect of cytoxan in patients is alopecia. Cytoxan and polyamine effector compounds were purchased from Sigma Chemicals Co. (St. Louis, Mo.). To produce CTX-induced alopecia, 7 to 10 day old rat pups were injected i.p. with 35 mg/kg of CTX prepared in phosphate-buffered saline. To produce reproducible CTX induced alopecia, we first tested several concentrations (35, 40, 45 ug/gm body weight) of CTX in phosphate-buffered saline (PBS), which was injected i.p. in 7–10 day old pups. Seven to ten days after CTX treatment the pups were examined to determine the degree of hair loss. The density of hair on the pups was then determined. 100% hair density represents that found on the untreated control pups while 0% represented pups with total hair loss. It was observed that 35 ug/gm of CTX was sufficient to induce 100% hair loss approximately 7 days after cytoxan challenge, and this concentration was used in subsequent experiments.
Different types of polyamine effector agents were tested in this model. The effectors were prepared in a delivery vehicle, consisting of from 60–100% ethanol in water, depending on the solubility of the compound. The compounds in ethanol/water solution from 50–150 μl in volume were topically administered to the backs of the pups once per day before and after CTX challenge. Using a micropipette, the formulation was applied to approximately 2 cm^2 section of skin to the backs of the rat pups. Specifically, the pups were treated once daily for the 4–5 days before CTX challenge, once on the day of CTX challenge and once daily for 5 days afterwards. Control groups consisted of pups receiving only delivery vehicle. Control groups treated with delivery vehicle were tested as part of every treatment study. Two or more animals were tested per group in both the control and test groups.
Approximately 7 to 10 days after CTX treatment, the pups were evaluated for alopecia. Hair loss was evaluated using a modified alopecia-scoring index described by Chen G. et al., Int. J. Cancer: 75, 303 (1998). A score of 0=no hair loss; a score of 1=10–30% hair loss; a score of 2=40–60% hair loss; a score of 3=70–90% hair loss; and a score of 4=100% hair loss.
as §1, with “It was observed that 35 ug/gm of CTX was sufficient to induce 100% hair loss approximately 7 days after cytoxan challenge, and this concentration was used in subsequent experiments.” left out

DNA = settings: in vitro; Basu et al. 1993; cited from earlier work
[3] = 10 mM in ethanol/water, scale 0-4
[4] = 1 mM topical (Example 1), scale 0-4, vehicle 4.0
[5] = 5 mM topical (Example 1), scale 0-4, vehicle 4.0
[6] = 10 mM topical, scale 0-4, vehicle 4.0
[7] = 20 mM topical, scale 0-4, vehicle 4.0
[8] = Example 1, concentrations tested
[9] = 50 mM topical, scale 0-4, vehicle 4.0
[10] = 50 mM in ethanol/water, scale 0-4
[11] = Example 6, 5 mM in 70% ethanol, topical, scale 0-4, vehicle 4.0

## Cl.NCCC[C@](N)(C(=O)O)C(F)F (racemic) [DFMO, DL-Alpha Difluoromethylornithine HCl, reference compound]
[1]; [3]
  Avg dermatitis score: 2.5
[2]; [4]
  Avg Alopecia Score: 4.0
[2]; [5]
  Avg Alopecia Score: 2.0
[2]; [6]
  Avg Alopecia Score: 2.0
[2]; [7]
  Avg Alopecia Score: 3.5
[2]; Example 1, 5–10 mM
  effect on CTX-induced alopecia: effectively prevented alopecia

## N=C(N)NCCCCN [Agmatine]
[1]; [3]
  Avg dermatitis score: 1.8
[1]; 20 mM in ethanol/water, scale 0 (normal) to 4
  Avg dermatitis score: 2.0
[2]; [4]
  Avg Alopecia Score: 3.0
[2]; [6]
  Avg Alopecia Score: 3.0
[2]; [8]
  effect on CTX-induced alopecia: reduced, but did not prevent alopecia

## C[C@](N)(CCCN)C(=O)O [Alpha-Methyl ornithine, reference compound]
[2]; [5]
  Avg Alopecia Score: 4.0
[2]; [7]
  Avg Alopecia Score: 4.0
[2]; [8]
  effect on CTX-induced alopecia: did not prevent hair loss

## CCNCCCNCCCNCCCNCC [BE-3-3-3, N1, N11-bis (ethyl) norspermine]
[2]; [4]
  Avg Alopecia Score: 2.7
[2]; [5]
  Avg Alopecia Score: 2.3
[2]; [7]
  Avg Alopecia Score: 1.7
[2]; Expt. 1, 1 mM, vehicle 4.0 +/- 0.0
  Alopecia Score +/- SEM: 3.5 +/− 0.7
[2]; Expt. 1, 10 mM, vehicle 4.0 +/- 0.0
  Alopecia Score +/- SEM: 1.5 +/− 0.7
[2]; Expt. 2, 1 mM, vehicle 3.5 +/- 0.7
  Alopecia Score +/- SEM: 2.5 +/− 0.3
[2]; Expt. 2, 10 mM, vehicle 3.5 +/- 0.7
  Alopecia Score +/- SEM: 0.25 +/− 0.3
[2]; Expt. 3, 1 mM, vehicle 4.0 +/- 0.0
  Alopecia Score +/- SEM: 2.7 +/− 0.4
[2]; Expt. 3, 10 mM, vehicle 4.0 +/- 0.0
  Alopecia Score +/- SEM: 2.0 +/− 0.3
[2]; Table 15, several data sets at multiple concentrations
  Avg Alopecia Score: 0.3–1.5

## CCNCCCCNCCCCNCCCCNCC [BE-4-4-4, 1N,14N-Bisethylhomospermine]
DNA
  DNA binding and aggregation: binds to DNA in vitro but does not aggregate it

## CCNCCCCNCCCCNCCCCNCCCCNCC [BE-4-4-4-4, 3,8,13,18,23-Pentaazapentacosane]
DNA
  DNA binding and aggregation: both binds DNA and aggregates it

## NCCCCCN [Cadaverine]
[2]; [5]
  Avg Alopecia Score: 4.0
[2]; [9]
  Avg Alopecia Score: 2.5

## NC(=NCCC[C@H](N)C(=O)O)NO [NOHA, NG-hydroxy-arginine]
[2]; [5]
  Avg Alopecia Score: 2.75

## NCCCNCCCN [Norspermidine]
[2]; [5]
  Avg Alopecia Score: 4.0
[2]; [9]
  Avg Alopecia Score: 2.0

## NCCCCN [Putrescine]
[1]; [10]
  Avg dermatitis score: 3.0
[2]; 2 mM topical, scale 0-4, vehicle 4.0
  Avg Alopecia Score: 3.0
[2]; [5]
  Avg Alopecia Score: 2.5
[2]; [6]
  Avg Alopecia Score: 2.0
[2]; [9]
  Avg Alopecia Score: 1.5

## CCNCCCNCC1CC1CNCCCNCC (stereo not drawn) [SL-11038]
[2]
  efficacy in the rat alopecia and/or dermatitis model: showed efficacy
[2]; [11]
  Avg Alopecia Score: 3.5

## CCNCCCNCC1CCC1CNCCCNCC (stereo not drawn) [SL-11044]
[2]; [11]
  Avg Alopecia Score: 2.5

## CCNCCCNCC#CCNCCCNCC [SL-11091]
[2]; [11]
  Avg Alopecia Score: 3.0

## CNCCCNCC#CCNCCCNC [SL-11092]
[2]
  efficacy in the rat alopecia and/or dermatitis model: showed efficacy
[2]; Table 10, treatment (1 mM), vehicle 4.0
  Avg Alopecia Score: 0.0
[2]; Table 15, cytoxan-induced, re-screening summary
  Avg Alopecia Score: 0.0

## CCNCCCCNCC#CCNCCCCNCC [SL-11103]
[2]
  efficacy in the rat alopecia and/or dermatitis model: showed efficacy

## CCNCCCCNCCCCNCCCCNCCCCNCCO [SL-11141]
[2]
  efficacy in the rat alopecia and/or dermatitis model: showed efficacy
[2]; Example 6, 5 mM
  effectiveness at preventing alopecia after CTX treatment: less effective
[2]; [11]
  Avg Alopecia Score: 3.3

## NCCCCNCCCN [Spermidine]
[2]; [6]
  Avg Alopecia Score: 2.0
[2]; [9]
  Avg Alopecia Score: 3.5

## NCCCNCCCCNCCCN [Spermine]
[1]; [10]
  Avg dermatitis score: 2.8
[2]; [7]
  Avg Alopecia Score: 3.0
[2]; [9]
  Avg Alopecia Score: 2.0
[2]; 100 mM topical once daily in ethanol/water, scale 0 (no hair loss) to 4 (100% hair loss), vehicle 4.0
  Avg Alopecia Score: 0.0

## NCCCNCCSP(=O)(O)O [amifostine, S-2-(3-aminopropylamino) ethylphoshorothioic acid, reference compound]
[1]; radiation-induced dermatitis assay, as compared with putrescine
  radioprotective activity: good radioprotective activity

Reference: patent US7045550B2, “Polyamines and analogs for protecting cells during cancer chemotherapy and radiotherapy” (Wisconsin Alumni Research Foundation, priority 2001, dated 2006)
